Data as given in PubChem BioAssay (NCI).
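Results reflect a 48-hour exposure of cells in 96-well plates to compound at five concentrations. Abbreviation: GI50, concentration required for 50% inhibition of growth. TGI: total growth inhibition.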 Where a SMILES comes first, the peptide text is derived from it. The star is where a group is joined. Cbz = O=C(OCc1ccccc1)*; CH2Cl = ClC*

test system: SNB-75 CNS; assay: NCI anticancer screen, dose series, 48 h

Q: Which GI50 does the source give for `CCCN1C(=O)N(CCC)C2C1NC(=S)N2/N=C/C=C/c1ccccc1OC` (stereo not given) here?
A: 233 nM

Q: And the TGI?
A: 2300 nM

Q: How did the TGI turn out when `COc1cc2c(c(OC)c1OC)-c1ccc(SC)c(=O)cc1C(NC=O)CC2` (stereo not given) was run?
A: > 21500 nM

Q: Which results are given for `CCSc1ncnc2c1ncn2C1OC(CO)C(O)C1O` (stereo not given)?
A: GI50: > 34100 nM; TGI: > 100000 nM

Q: How did the GI50 turn out when `CC[C@H]1[C@@H]2C=C[C@@H]3[C@H]4C/C=C\C(=O)NCCC[C@@H]5NC(=O)/C(=C(O)/C=C/[C@@H]4C[C@@H]3[C@H]2C[C@H]1C)C5=O` was run?
A: 415 nM

Q: And the TGI?
A: 1580 nM

Q: Which GI50 does the source give for `CN1C(=O)N(C)C2C1NN=c1s/c(=C\c3ccc(Cl)cc3Cl)c(=O)n12` (stereo not given) here?
A: 27.4 nM

Q: And the TGI?
A: 2320 nM

Q: `Cc1ccc(NC(=O)CC2CC2)cc1-c1ccc(C(=O)NCC2CC2)cc1` was tested. Which GI50 did it give?
A: > 25000 nM

Q: And the TGI?
A: > 25000 nM

Q: How did the GI50 turn out when `CNCC#Cc1c(F)ccc2c1/C(=C/c1[nH]ccc1OC)C(=O)N2` was run?
A: 78.6 nM

Q: What about the TGI of the same compound?
A: 1810 nM

Q: With `Cn1cc(C2=C(c3cn(CCCCO)c4ccccc34)C(=O)NC2=O)c2ccccc21` as the compound, how does the GI50 read?
A: 2310 nM

Q: And the TGI?
A: > 25000 nM

test system: A498 renal; assay: NCI anticancer screen, dose series, 48 h

Q: What does the source list for `O=C1C=CC(=O)c2cc3cc(CBr)ccc3cc21`?
A: GI50: 17500 nM; TGI: 34400 nM

Q: `CS(=O)(=O)CCNCc1nc(-c2ccc3ncnc(Nc4ccc(OCc5cccc(C(F)(F)F)c5)cc4)c3c2)cs1` was tested. Which GI50 did it give?
A: 4100 nM

Q: And the TGI?
A: > 25000 nM

Q: How did the TGI turn out when `CC(C)CC(NC(=O)OCc1ccccc1)C(=O)NC(Cc1ccccc1)C(=O)CCl` (stereo not drawn) (Cbz-Leu-Phe-CH2Cl; configuration not given here) was run?
A: 71200 nM

Q: Which results are given for `CCOC(=O)C(Cc1ccc(CCCC(=O)NCCC(=O)Nc2ccc3nc(C)sc3c2)cc1)C(=O)OCC`?
A: GI50: > 100000 nM; TGI: > 100000 nM

Q: `NCCNc1c2c(c(NCCN)c3[nH]ccc13)C(=O)c1ccccc1C2=O` was tested. Which GI50 did it give?
A: 231 nM

Q: What about the TGI of the same compound?
A: 565 nM

Q: Which GI50 does the source give for `CCOC(=O)Nc1ccc(-c2nc(-c3cccc(OCCN4CCOCC4)c3)c(-c3ccnc(Br)c3)[nH]2)cc1` here?
A: 1660 nM

Q: What about the TGI of the same compound?
A: 5660 nM

Q: For `COc1ccc(-c2nn(-c3ccc(NC(=O)c4ccc(Cl)c(Cl)c4)cc3)cc2-c2ccncc2)cc1Cl`, which GI50 is on record?
A: 1260 nM

Q: And the TGI?
A: 4520 nM

Q: `C[C@@H]1CC[C@@H]2[C@@H]1[C@H](OC(=O)/C=C/c1ccccc1)[C@]1(C3CCCCC3)C[C@@H](OC(=O)CO)[C@@]2(C)O1` was tested. Which GI50 did it give?
A: 19.1 nM

Q: And the TGI?
A: 57.2 nM

Q: With `CCCN1C(=O)N(CCC)C2C1NC(=S)N2/N=C/C=C/c1ccccc1OC` (stereo not given) as the compound, how does the GI50 read?
A: 203 nM

Q: And the TGI?
A: 1000 nM

Q: `COc1cc2c(c(OC)c1OC)-c1ccc(SC)c(=O)cc1C(NC=O)CC2` (stereo not given) was tested. Which TGI did it give?
A: 1760 nM

Q: What does the source list for `CCSc1ncnc2c1ncn2C1OC(CO)C(O)C1O` (stereo not given)?
A: GI50: 81 nM; TGI: 1920 nM

Q: What does the source list for `CC[C@H]1[C@@H]2C=C[C@@H]3[C@H]4C/C=C\C(=O)NCCC[C@@H]5NC(=O)/C(=C(O)/C=C/[C@@H]4C[C@@H]3[C@H]2C[C@H]1C)C5=O`?
A: GI50: 1670 nM; TGI: 3080 nM

Q: For `CN1C(=O)N(C)C2C1NN=c1s/c(=C\c3ccc(Cl)cc3Cl)c(=O)n12` (stereo not given), which GI50 is on record?
A: 67 nM

Q: What about the TGI of the same compound?
A: 653 nM

Q: Which results are given for `Cc1ccc(NC(=O)CC2CC2)cc1-c1ccc(C(=O)NCC2CC2)cc1`?
A: GI50: > 25000 nM; TGI: > 25000 nM

Q: Which GI50 does the source give for `CNCC#Cc1c(F)ccc2c1/C(=C/c1[nH]ccc1OC)C(=O)N2` here?
A: 179 nM

Q: What about the TGI of the same compound?
A: 1410 nM

Q: Which results are given for `Cn1cc(C2=C(c3cn(CCCCO)c4ccccc34)C(=O)NC2=O)c2ccccc21`?
A: GI50: 6320 nM; TGI: 22200 nM

test system: MCF7 breast; assay: NCI anticancer screen, dose series, 48 h

Q: How did the GI50 turn out when `O=C1C=CC(=O)c2cc3cc(CBr)ccc3cc21` was run?
A: 9730 nM

Q: And the TGI?
A: > 100000 nM

Q: With `CS(=O)(=O)CCNCc1nc(-c2ccc3ncnc(Nc4ccc(OCc5cccc(C(F)(F)F)c5)cc4)c3c2)cs1` as the compound, how does the GI50 read?
A: > 17500 nM

Q: What about the TGI of the same compound?
A: > 25000 nM

Q: For `CC(C)CC(NC(=O)OCc1ccccc1)C(=O)NC(Cc1ccccc1)C(=O)CCl` (stereo not drawn) (Cbz-Leu-Phe-CH2Cl; configuration not given here), which TGI is on record?
A: 7850 nM

Q: With `CCOC(=O)C(Cc1ccc(CCCC(=O)NCCC(=O)Nc2ccc3nc(C)sc3c2)cc1)C(=O)OCC` as the compound, how does the GI50 read?
A: 22200 nM

Q: What about the TGI of the same compound?
A: 64300 nM

Q: What does the source list for `NCCNc1c2c(c(NCCN)c3[nH]ccc13)C(=O)c1ccccc1C2=O`?
A: GI50: 29 nM; TGI: 323 nM

Q: What does the source list for `CCOC(=O)Nc1ccc(-c2nc(-c3cccc(OCCN4CCOCC4)c3)c(-c3ccnc(Br)c3)[nH]2)cc1`?
A: GI50: 1620 nM; TGI: 4270 nM

Q: How did the GI50 turn out when `COc1ccc(-c2nn(-c3ccc(NC(=O)c4ccc(Cl)c(Cl)c4)cc3)cc2-c2ccncc2)cc1Cl` was run?
A: 2970 nM

Q: What about the TGI of the same compound?
A: > 50000 nM

Q: Which GI50 does the source give for `C[C@@H]1CC[C@@H]2[C@@H]1[C@H](OC(=O)/C=C/c1ccccc1)[C@]1(C3CCCCC3)C[C@@H](OC(=O)CO)[C@@]2(C)O1` here?
A: 2580 nM

Q: And the TGI?
A: 10800 nM

Q: `CCCN1C(=O)N(CCC)C2C1NC(=S)N2/N=C/C=C/c1ccccc1OC` (stereo not given) was tested. Which GI50 did it give?
A: 390 nM

Q: What about the TGI of the same compound?
A: > 100000 nM

Q: `COc1cc2c(c(OC)c1OC)-c1ccc(SC)c(=O)cc1C(NC=O)CC2` (stereo not given) was tested. Which TGI did it give?
A: 42000 nM

Q: Which results are given for `CCSc1ncnc2c1ncn2C1OC(CO)C(O)C1O` (stereo not given)?
A: GI50: 288 nM; TGI: > 91200 nM

Q: Which GI50 does the source give for `CC[C@H]1[C@@H]2C=C[C@@H]3[C@H]4C/C=C\C(=O)NCCC[C@@H]5NC(=O)/C(=C(O)/C=C/[C@@H]4C[C@@H]3[C@H]2C[C@H]1C)C5=O` here?
A: 1750 nM

Q: What about the TGI of the same compound?
A: 3880 nM

Q: With `CN1C(=O)N(C)C2C1NN=c1s/c(=C\c3ccc(Cl)cc3Cl)c(=O)n12` (stereo not given) as the compound, how does the GI50 read?
A: 45 nM

Q: And the TGI?
A: > 48300 nM

Q: How did the GI50 turn out when `Cc1ccc(NC(=O)CC2CC2)cc1-c1ccc(C(=O)NCC2CC2)cc1` was run?
A: > 25000 nM

Q: And the TGI?
A: > 25000 nM

Q: With `CNCC#Cc1c(F)ccc2c1/C(=C/c1[nH]ccc1OC)C(=O)N2` as the compound, how does the GI50 read?
A: 210 nM

Q: And the TGI?
A: 3040 nM

Q: For `Cn1cc(C2=C(c3cn(CCCCO)c4ccccc34)C(=O)NC2=O)c2ccccc21`, which GI50 is on record?
A: 4450 nM

Q: What about the TGI of the same compound?
A: > 25000 nM
